From US6635234B1, “Preparation and use of radium-223 to target calcified tissues for pain palliation, bone cancer therapy, and bone surface conditioning” (Anticancer Therapeutic Inventions AS, priority 1999, dated 2003)
Values joined by “and” are separate entries in the source; they are usually repeats but may differ in a detail not shown here. Identical values can stand only once.

How the values were obtained:
[1] = system: MT-1 human breast cancer cells; conditions: treatment seven days after tumour cell inoculation; cited from earlier work
[2] = Release of daughter isotopes from fragmented femur washed with PBS; format: in vivo, mice
Protocol: To study potential release of daughter isotopes after ^223Ra was incorporated in bone, due to either nuclear recoil or diffusion processes, femurs from five animals killed 6 h, and 5 animals killed 3 days after injection were examined.
Methods: The bones were cleaved longitudinally, to expose the red marrow (spongious) areas, and thereafter cut into small fragments of less than 3 mg. Thereafter the samples were washed with Dulbeccos PBS (Sigma-Aldrich CO. LTD., Irvine, UK) using centrifugation. The supernatant was removed, mixed with scintillation liquid (Insta-Gel 11 plus, Packard BioScience BV, Groningen, The Netherlands) and counted on a scintillation counter (Beckman Instruments Inc. Fullerton, Calif., USA). After one day sample counting was repeated. A difference in counts after correcting for ^223Ra decay between the two measurements was used as indication of release of daughter nuclide(s) from bone matrix.

[3] = Biodistribution of radium-223 in Balb/C mice; format: in vivo; conditions: for % of injected dose per gram, femur: 9 kBq in isotonic saline
Protocol: (§1) Methods: Young male Balb/C mice with a body weight of 19-21 g were injected with 9 kBq of ^223Ra in 150 μl of isotonic saline. Groups of five animals were sacrificed and dissected at 6 h and 3 days after injection. Sample weight was measured and samples were counted using (A) a “well type” NaI scintillation crystal (Harshaw Chemie BV, De Meern, Holland) combined with a Scaler Timer ST7 (NE Technology Ltd, Reading, UK) digital unit, (B) a Beckman LS 6500 (Beckman Instruments Inc. Fullerton, Calif., USA). Relative abundances of radionuclides were studied in blood, liver, kidney, and in standard samples with mother/daughter in equilibrium, using a Ge-detector (Canberra, Meriden, Conn., USA) combined with an amplifier and bias supply from EG&G Ortec (Oak Ridge, Tenn., USA).

[4] = Localization Index (211Bi vs 223Ra retention) in femur by gamma spectroscopy; format: in vivo, mice; conditions: average
Protocol: To examine if there was a difference in radioisotope retention between radium-223 and bismuth-211 in bone samples, gamma spectroscopic data for bone versus a standard solution with ^223Ra and daughter radionuclides in equilibrium was studied.
Methods: Gamma spectroscopy with a germanium detector (Canberra, Meriden, Conn., USA) was performed on samples of femur from mice immediately after sacrificing and dissecting the animals. Samples of a standard solution of ^223Ra and daughter radionuclides in equilibrium were studied. The distinct gamma peaks at 351.0 keV (^211Bi) and 154.2 keV (^223Ra) were used. A Localization Index (LI) was determined as follows:
E.g., BBi−^211Bi count rate in bone; SRa−^223Ra count rate in standard
Gamma spectra from five samples from the 6 h group and the 3 days group respectively were compared, to five and three samples from the standard solution respectively, using Student t-test for data columns.

[5] = Gamma spectroscopy of the 211Bi:223Ra ratio in tissues versus a standard solution; format: in vivo, Balb/C mice
Protocol: as §1
The ratio of ^211Bi: ^223Ra was in the spleen at the 6 hour point on average 54% compared to a standard solution. In liver and kidneys on the other hand, the ^211Bi: ^223Ra ratios in the samples were on the average 256 and 207% of the standards respectively. […] Also the ^211Bi activity in soft tissues was in general very low compared to bone activity of this nuclide. The ^211Bi in the soft tissues may have been generated from ^223Ra present in soft tissues.

[6] = system: MT-1 human breast cancer cells; test: MT-1/nude rat model of skeletal metastases; format: in vivo, nude rats
Text: It has been developed animal models with experimental metastasis pattern resembling those frequently observed in human patients (Engebraaten and Fodstad, 1999). One of these models consists of MT-1 cells injected intracardially into nude rats and is characterized by the consistent development of hind leg paralysis in the animals.
Method: The therapeutic potential of radium-223 was studied in the MT-1/nude rat model where animals were inoculated with 1×10^6 MT-1 human breast cancer cells by injection into the left ventricle of the heart as described (Engebraaten and Fodstad,. 1999). These animals usually develop paralysis caused by growth of tumours in the spine. Groups of 4 and 5 animals each were then treated seven days later by receiving an intravenous injection of 200 μl of a vehicle solution without or with 10 kBq of radium-223 according to the invention.

[7] = bone samples; after radium-226 had been administered to dogs; cited from earlier work

N.N.[Cl][Pt][Cl] [cisplatin]
Effect on survival [1]: did not improve survival

COc1cccc2c1C(=O)c1c(O)c3c(c(O)c1C2=O)C[C@@](O)(C(=O)CO)C[C@@H]3O[C@H]1C[C@H](N)[C@H](O)[C@H](C)O1 [doxorubicin]
Effect on survival [1]: did not improve survival

[223Ra] [radium-223]
Activity dissolved in PBS during washing, compared to the total activity in bone ([2]; animals killed after 6 hours, average): 1.8%
Translocation of daughter isotopes from bone ([2]; animals killed after 6 hours, probably): less than 2%
Activity of washing solutions counted again, of the bone sample ([2]; animals killed after 6 hours, recounted after 12 h, average): 0.2%
Counts in the washing solution compared to the background ([2]; animals killed after 3 days): no significant counts
Translocation, below detection limit, of the total bone radioactivity ([2]; animals killed after 3 days, estimated detection limit): less than 1%
Femur to blood ratio ([3]; 6 h after injection): 129
Femur to spleen ratio ([3]; 6 h after injection): 6.4
Concentration in bone compared to soft tissues ([3]; 6 h and 3 days): selectively concentrated in bone
Femur to blood ratio ([3]; 3 days after injection): 691
Femur to spleen ratio ([3]; 3 days after injection): 23.7
% of injected dose per gram, blood ([3]; 6 hours): 0.20 ± 0.23 % of injected dose per gram
% of injected dose per gram, blood ([3]; 3 days): 0.05 ± 0.10 % of injected dose per gram
% of injected dose per gram, brain ([3]; 6 hours): 0.04 ± 0.01 % of injected dose per gram
% of injected dose per gram, brain ([3]; 3 days): 0.12 ± 0.12 % of injected dose per gram
% of injected dose per gram, femur ([3]; 6 hours after injection): 25.86 ± 1.99 % of injected dose per gram
% of injected dose per gram, femur ([3]; 3 days after injection): 34.55 ± 7.87 % of injected dose per gram
% of injected dose per gram, heart ([3]; 6 hours): 0.10 ± 0.10 % of injected dose per gram
% of injected dose per gram, heart ([3]; 3 days): 0.06 ± 0.07 % of injected dose per gram
% of injected dose per gram, kidney ([3]; 6 hours): 4.04 ± 0.33 % of injected dose per gram
% of injected dose per gram, kidney ([3]; 3 days): 0.38 ± 0.08 % of injected dose per gram
% of injected dose per gram, large intestine ([3]; 6 hours): 2.30 ± 0.60 % of injected dose per gram
% of injected dose per gram, large intestine ([3]; 3 days): 0.13 ± 0.02 % of injected dose per gram
% of injected dose per gram, liver ([3]; 6 hours): 0.89 ± 0.18 % of injected dose per gram
% of injected dose per gram, liver ([3]; 3 days): 0.22 ± 0.32 % of injected dose per gram
% of injected dose per gram, lung ([3]; 6 hours): 0.59 ± 0.56 % of injected dose per gram
% of injected dose per gram, lung ([3]; 3 days): 0.06 ± 0.07 % of injected dose per gram
% of injected dose per gram, muscle ([3]; 6 hours): 0.72 ± 0.39 % of injected dose per gram
% of injected dose per gram, muscle ([3]; 3 days): 0.30 ± 0.16 % of injected dose per gram
% of injected dose per gram, small intestine ([3]; 6 hours): 0.79 ± 0.26 % of injected dose per gram
% of injected dose per gram, small intestine ([3]; 3 days): 0.04 ± 0.03 % of injected dose per gram
% of injected dose per gram, spleen ([3]; 6 hours): 4.06 ± 1.4 % of injected dose per gram
% of injected dose per gram, spleen ([3]; 3 days): 1.46 ± 0.54 % of injected dose per gram
Localization Index LI=(BBi/SBi)/(BRa/SRa) ([4]; 6 h point, P=0.059): 0.85
Localization Index LI=(BBi/SBi)/(BRa/SRa) ([4]; 3 day point, P=0.749): 0.97
Difference in relative distribution of radium-223 and its daughters (abundance of 211Bi) ([5]; bone and most soft tissues, gamma spectroscopy): no significant difference
Ratio of 211Bi:223Ra, % of the standards ([5]; kidneys, average): 207%
Ratio of 211Bi:223Ra, % of the standards ([5]; liver, average): 256%
Ratio of 211Bi:223Ra compared to a standard solution ([5]; spleen, 6 hour point, average): 54%
Anti-tumour effect in animals with skeletal metastases ([6]; 10 kBq i.v.): significant anti-tumour effect
Time to paralysis after tumour cell inoculation (individual animals) ([6]; 10 kBq i.v. seven days after inoculation, group of five animals, listed as 223Ra): 26 days and 40 days and 64 days
Survival without signs of paralysis, two remaining animals (follow-up period) ([6]; 10 kBq i.v. seven days after inoculation, two of five animals): ≥ 90 days

[226Ra] [radium-226]
Radon-222 escaped from the bone [7]: 89.5-94.25%
